Results from US20090074802A1, “IMMUNOMODULATING OLIGOPEPTIDES” (priority 2006, published 2009).

System: Balb/c mice immunized with KLH
Assay: Humoral immune response to T-cell dependent antigen (KLH) in mice; isotype-specific anti-KLH ELISA of serum
Assay type: in vivo, mouse
Conditions: day 28 after a single injection; 20 μg peptide i.p.; KLH 20 μg s.c. with complete Freund adjuvant
Protocol: To investigate the effect of B134, a representative of the XPY family, inbred SPF mice (Balb/cAwNCrl, 7 to 8 week old, Charles River Laboratories GmbH, Germany) were immunized with KLH, a T-cell dependent antigen. 3 mice per group were injected subcutaneously in the presence of complete Freund adjuvant (50/50 v/v). The mix of antigen (20 μg in 100 μl) with adjuvant (Sigma, #F-5881) was emulsified and injected in the neck region. At the same day 20 μg of immunomodulator B134 or B211 were injected in 200 μl of PBS intraperitoneally. Samples of blood (50-70 μl) were collected from mice on day 7, 14, 21, and 28 from the leg vein. Serum was prepared by clotting the blood for 2 hours at 37° C., followed by 18 hours at 8° C., and centrifugation at 10,000 rpm in an Eppendorf-like centrifuge. Sera were stored diluted with antibody stabilizer (SkyTec ABB500) at 4° C., and analyzed in ELISA simultaneously. For the latter assay, the 96 wells ELISA plates (Greiner, #655061) were coated with KLH (soluble, Sigma H7017) in phosphate buffered solution (PBS), 0.2 μg/well overnight at 4° C. The diluted sera were incubated with antigen ([…]) for 1 hour at room temperature, followed by a wash with PBS/0.1% Tween-20. The binding of mouse antibodies to KLH was detected using isotype specific anti-mouse immunoglobulins, conjugated with HRP (Southern Biotechnology Ltd., anti-mouse IgM #1021-05, anti-mouse IgG1 #1070-05, anti-mouse IgG2a # 1080-05, anti-mouse IgG2b #1090-05) according to the manufacturer's protocol. TMB was used as a substrate. The results were analyzed on Bio-Rad Microplate Reader Model 550, the optical density was measured at 595 nm.
Results shown in FIG. 1 represent titration slope of the serum from experimental mice. The dilutions of sera used are from 1/300 to 1/20,000 with a step of ½ (indicated on X axis as 1 to 6 respectively). The serum reactivity is presented as O.D. shown by a sample in ELISA. The dots represent the average reactivity of samples from 3 sera (from 3 mice per condition). The variation bar represents the 95% confidence interval.

Substance | titer of IgG2a, times higher than in control mice immunized with antigen alone | titer of IgG2b, times higher than in control mice immunized with antigen alone | titer of IgM, times higher than in control mice immunized with antigen alone (every isotype analyzed) | titre of specific IgG1 in sera, times higher than in control mice immunized with antigen alone
Ile-Pro-Tyr [B134] | approximately 2 times | approximately 2 times | approximately 2 times | approximately 2 times
IEWIPY [B211] | ~4 times | ~4 times |  | approximately 16 times
